biological target: T1, human PLC-β2 (Homo sapiens, UniProt Q00722); experiment: PLC assay using FlashPlates (96-well, immobilized [3H]PIP2 substrate); type: biochemical; conditions: purified recombinant human PLC-β2 or cytosolic human PLC-β2; hydrolysis of [3H]PIP2
T1 construct: made in house; host or cells: Sf9 cells (Spodoptera frugiperda), recombinant baculovirus
Text: The hydrolysis of phosphatidylinositol-4,5-bisphosphate (PIP2) by a specific phospholipase C-β2 (PLC-β2) produces two intracellular messengers, diacylglycerol (DAG) and inositol 1,4,5-trisphosphate (IP3), which mediate the activation of protein kinase C and intracellular Ca^2+ release. A conventional organic solvent extraction method is widely used for PLC assays to isolate IP3 from the substrate PIP2. The conventional PLC-β2 assay, however is terminated by addition of acidified organic solvents and subsequent extraction and phase separation. […] Accordingly, a preferred method to test the compounds of the present invention, was developed utilizing a 96-well plate assay for PLC-β2 using immobilized radiolabeled substrate to quantitatively measure the reduction in the substrate level without a need for organic solvent extraction. The automated PLC-β2 assay described herein provides a convenient method for quantitative measurement of phospholipase C activities in a high throughput fashion. Ninety-six well Phospholipid FlashPlates were coated with 0.2 mL of 50 mM Tris/HCl (pH 7.4), 0.01% Ac-BSA and 50,000 cpm of […] (phosphatidylinositol-4,5-bisphosphate) at 4° C. for 72 h. The wells were aspirated and washed twice with PBS. The reactions were conducted directly in the wells in PLC reaction buffer containing 50 mM Tris/HCl (pH 7.2), 2.75 mM EDTA (pH 7.3), 80 mM KCl, 10 mM LiCl, 0.04% DOC and 2 mM CaCl2 in the absence or presence of the purified recombinant human PLC-β2 (prepared as described hereafter) or cytosolic human PLC-β2 from […]. Reduction of radioactivity was monitored by a Packard TopCount instrument (Packard Instrument Company, Conn., USA). […] The cells were grown in Grace's media supplemented with 10% (v/v) fetal bovine serum, 3.3 g/l yeastolate, 3.3 g/l lactalbumin hydrosylate, glutamine (6.4 mM final), 50 μg/ml gentamicin, and 50 μg/ml kanamycin. Suspension of Sf9 cells (1.0×10^6 cells/ml) were infected with 5 pfu/cell of recombinant baculovirus encoding PLC-β2 and incubated at 27° C. for 72 h. The cells were collected by centrifugation (500×g, 7 min, 4° C.) and disrupted by hypotonic lysis buffer containing 20 mM Tris/HCl, pH 7.4, 5 mM MgCl2, 2 mM EGTA, 200 μM PMSF, 200 μM benzamidine and 1 μM pepstatin A. The lysate was sonicated on ice and the nuclei and unbroken cells removed by centrifigation (500×g, 5 min, 4C.). The supernatant was recovered and clarified by centrifugation (34,000 rpm, 60 min, 4C.). The supernatant was used as a crude cytosolic fraction (Paterson, A., Boyer, J. L., Watts, V. J., Morris, A. J., Price, […]. (1995) Concentration of enzyme-dependent activation of PLC β1 and PLC β2 by Gα11 and βγ subunits. Cellular Signalling 7, 709-720). Crude cytosol prepared from Sf9 cells expressing PLC-β2 was purified initially by chromatography on a 10 ml column of Q-Sepharose FF, equilibrated in buffer A (25 mM HEPES, pH 7.2,2 mM DTT, 2 mM EDTA, 2 mM EGTA, 200 μM PMSF, 200 μM benzamidine, 1 μM pepstatin A containing 10 mM NaCl). The column was washed with 20 ml of equilibration buffer and eluted with a 200-ml gradient of 110-410 mM NaCl in buffer A. The fractions containing PLC activity were pooled and diluted with buffer A. The diluted enzyme was applied to a 4 ml column of heparin-SepharoseCL-6B equilibrated in buffer A and the column washed with 70 ml of buffer A. The column was eluted with 80 ml of gradient of 0-1.0 M NaCl in buffer A, the column eluate collected in 3 ml fractions. […]

T1 sequence (Q00722 whole entry): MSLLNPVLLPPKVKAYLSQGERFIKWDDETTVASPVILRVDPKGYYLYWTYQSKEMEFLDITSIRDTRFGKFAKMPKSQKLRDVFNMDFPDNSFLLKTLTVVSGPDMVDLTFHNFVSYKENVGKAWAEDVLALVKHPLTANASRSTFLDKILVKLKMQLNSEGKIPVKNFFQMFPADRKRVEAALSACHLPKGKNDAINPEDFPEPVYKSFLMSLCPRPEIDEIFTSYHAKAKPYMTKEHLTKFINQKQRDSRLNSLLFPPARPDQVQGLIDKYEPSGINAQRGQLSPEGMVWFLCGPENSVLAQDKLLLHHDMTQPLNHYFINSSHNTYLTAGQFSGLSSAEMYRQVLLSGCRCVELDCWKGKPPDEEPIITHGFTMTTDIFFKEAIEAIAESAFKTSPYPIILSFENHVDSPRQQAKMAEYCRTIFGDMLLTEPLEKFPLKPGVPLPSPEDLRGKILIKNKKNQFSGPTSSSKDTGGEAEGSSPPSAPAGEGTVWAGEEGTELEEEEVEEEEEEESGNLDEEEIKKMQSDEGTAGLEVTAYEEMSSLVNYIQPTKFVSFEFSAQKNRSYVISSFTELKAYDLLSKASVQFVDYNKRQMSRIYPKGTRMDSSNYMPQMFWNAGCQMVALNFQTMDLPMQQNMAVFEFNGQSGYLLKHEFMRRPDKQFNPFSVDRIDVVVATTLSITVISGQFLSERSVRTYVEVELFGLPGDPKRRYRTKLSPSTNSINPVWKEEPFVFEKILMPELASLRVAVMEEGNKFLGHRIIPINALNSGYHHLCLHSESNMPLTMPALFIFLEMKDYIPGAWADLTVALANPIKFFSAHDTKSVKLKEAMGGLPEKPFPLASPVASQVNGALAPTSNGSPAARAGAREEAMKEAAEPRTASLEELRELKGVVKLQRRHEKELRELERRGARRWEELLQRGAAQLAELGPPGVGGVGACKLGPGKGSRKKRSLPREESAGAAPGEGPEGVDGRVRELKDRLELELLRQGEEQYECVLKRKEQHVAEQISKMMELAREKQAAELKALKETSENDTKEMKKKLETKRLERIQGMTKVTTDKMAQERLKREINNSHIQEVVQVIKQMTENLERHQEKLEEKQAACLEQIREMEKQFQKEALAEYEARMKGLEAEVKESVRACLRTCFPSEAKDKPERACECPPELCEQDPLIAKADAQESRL

IC50	SMILES
5.6 µM	Cc1cc(C)cc(NC(=O)Nc2cc(C(=O)N3CCNCC3)ccc2N2CCN(C(c3ccccc3)c3ccccc3)CC2)c1 [Cpd 42, N-(3,5-dimethylphenyl)-N′-[2-[4-(diphenylmethyl)-1-piperazinyl]-5-(1-piperazinylcarbonyl)phenyl]-urea]
5.7 µM	COc1ccc(NC(=O)Nc2cc(C(=O)N3CCNCC3)ccc2N2CCN(C(c3ccccc3)c3ccccc3)CC2)cc1 [Cpd 43, N-[2-[4-(diphenylmethyl)-1-piperazinyl]-5-(1-piperazinylcarbonyl)phenyl]-N′-(4-methoxyphenyl)urea]
2.3 µM	O=C(Nc1ccccc1)Nc1cc(C(=O)N2CCNCC2)ccc1N1CCN(C2c3ccccc3-c3ccccc32)CC1 [Cpd 44, N-[2-[4-(9H-fluoren-9-yl)-1-piperazinyl]-5-(1-piperazinylcarbonyl)phenyl]-N′-phenylurea]
2.2 µM	O=C(Nc1cc(C(=O)N2CCNCC2)ccc1N1CCN(C(c2ccccc2)c2ccc(Cl)cc2)CC1)NC1CCCCC1 (stereo not shown) [Cpd 45, N-[2-[4-[(4-chlorophenyl)phenylmethyl]-1-piperazinyl]-5-(1-piperazinylcarbonyl)phenyl]-N′-cyclohexyl-urea]
1.7 µM	O=C(Nc1ccccc1)Nc1cc(C(=O)N2CCNCC2)ccc1N1CCN(C(c2ccc(F)cc2)c2ccc(F)cc2)CC1 [Cpd 46, N-[2-[4-[bis(4-fluorophenyl)methyl]-1-piperazinyl]-5-(1-piperazinylcarbonyl)phenyl]-N′-phenylurea]
4.2 µM	O=C(Nc1cc(C(=O)N2CCNCC2)ccc1N1CCN(C(c2ccc(F)cc2)c2ccc(F)cc2)CC1)NC1CCCCC1 [Cpd 47, N-[2-[4-[bis(4-fluorophenyl)methyl]-1-piperazinyl]-5-(1-piperazinylcarbonyl)phenyl]-N′-cyclohexylurea]
> 25 µM	CC(c1ccccc1)N1CCN(c2ccc(C(=O)N3CCNCC3)cc2NC(=O)Nc2ccccc2)CC1 (stereo not shown) [Cpd 48, N-phenyl-N′-[2-[4-(1-phenylethyl)-1-piperazinyl]-5-(1-piperazinylcarbonyl)phenyl]-urea]
> 25 µM	COc1ccccc1N1CCN(c2ccc(C(=O)N3CCNCC3)cc2NC(=O)Nc2ccccc2)CC1 [Cpd 49, N-[2-[4-(2-methoxyphenyl)-1-piperazinyl]-5-(1-piperazinylcarbonyl)phenyl]-N′-phenylurea]

The remaining lines, values behind:

SMILES	IC50
COc1ccccc1NC(=O)Nc1cc(C(N)=O)ccc1N1CCN(C(c2ccc(F)cc2)c2ccc(F)cc2)CC1 [Cpd 17, 4-[4-[bis(4-fluorophenyl)methyl]-1-piperazinyl]-3-[[[(2-methoxyphenyl)amino]carbonyl]amino]-benzamide]	2.8 µM
COc1ccc(NC(=O)Nc2cc(C(N)=O)ccc2N2CCN(C(c3ccc(F)cc3)c3ccc(F)cc3)CC2)c(OC)c1 [Cpd 18, 4-[4-[bis(4-fluorophenyl)methyl]-1-piperazinyl]-3-[[[(2,4-dimethoxyphenyl)amino]carbonyl]amino]-benzamide]	4.6 µM
CN(C)c1ccc(NC(=O)Nc2cc(C(N)=O)ccc2N2CCN(C(c3ccc(F)cc3)c3ccc(F)cc3)CC2)cc1 [Cpd 19, 4-[4-[bis(4-fluorophenyl)methyl]-1-piperazinyl]-3-[[[[4-(dimethylamino)phenyl]amino]carbonyl]amino]-benzamide]	2.9 µM
COc1ccc(NC(=O)Nc2cc(C(N)=O)ccc2N2CCN(C(c3ccc(F)cc3)c3ccc(F)cc3)CC2)cc1 [Cpd 20, 4-[4-[bis(4-fluorophenyl)methyl]-1-piperazinyl]-3-[[[(4-methoxyphenyl)amino]carbonyl]amino]-benzamide]	4.3 µM
NC(=O)c1ccc(N2CCN(C(c3ccc(F)cc3)c3ccc(F)cc3)CC2)c(NC(=S)Nc2ccccc2)c1 [Cpd 22, 4-[4-[bis(4-fluorophenyl)methyl]-1-piperazinyl]-3-[[(phenylamino)thioxomethyl]amino]-benzamide]	1.2 µM
CN1CCN(C(=O)c2ccc(N3CCN(C(c4ccccc4)c4ccccc4)CC3)c(NC(=O)Nc3ccccc3)c2)CC1 [Cpd 23, N-[2-[4-(diphenylmethyl)-1-piperazinyl]-5-[(4-methyl-1-piperazinyl)carbonyl]phenyl]-N′-phenylurea]	4.9 µM
O=C(Nc1ccccc1)Nc1cc(C(=O)N2CCCNCC2)ccc1N1CCN(C(c2ccccc2)c2ccccc2)CC1 [Cpd 24, N-[2-[4-(diphenylmethyl)-1-piperazinyl]-5-[(hexahydro-1H-1,4-diazepin-1-yl)carbonyl]phenyl]-N′-phenylurea]	0.87 µM
O=C(Nc1cc(C(=O)N2CCCNCC2)ccc1N1CCN(C(c2ccccc2)c2ccccc2)CC1)NC1CCCCC1 [Cpd 25, N-cyclohexyl-N′-[2-[4-(diphenylmethyl)-1-piperazinyl]-5-[(hexahydro-1H-1,4-diazepin-1-yl)carbonyl]-phenyl]urea]	2.6 µM
NCCNC(=O)c1ccc(N2CCN(C(c3ccccc3)c3ccccc3)CC2)c(NC(=O)Nc2ccccc2)c1 [Cpd 26, N-(2-aminoethyl)-4-[4-(diphenylmethyl)-1-piperazinyl]-3-[[(phenylamino)carbonyl]amino]-benzamide]	1.9 µM
NCCNC(=O)c1ccc(N2CCN(C(c3ccccc3)c3ccccc3)CC2)c(NC(=O)NC2CCCCC2)c1 [Cpd 27, N-(2-aminoethyl)-3-[[(cyclohexylamino)carbonyl]amino]-4-[4-(diphenylmethyl)-1-piperazinyl]-benzamide]	2.8 µM
CN1CCN(C(=O)c2ccc(N3CCN(C(c4ccccc4)c4ccccc4)CC3)c(NC(=O)NC3CCCCC3)c2)CC1 [Cpd 28, N-cyclohexyl-N′-[2-[4-(diphenylmethyl)-1-piperazinyl]-5-[(4-methyl-1-piperazinyl)carbonyl]-phenyl]urea]	5.6 µM
CN(C)CCNC(=O)c1ccc(N2CCN(C(c3ccccc3)c3ccccc3)CC2)c(NC(=O)Nc2ccccc2)c1 [Cpd 29, N-[2-(dimethylamino)ethyl]-4-[4-(diphenylmethyl)-1-piperazinyl]-3-[[(phenylamino)carbonyl]amino]-benzamide]	3.3 µM
CN(C)CCNC(=O)c1ccc(N2CCN(C(c3ccccc3)c3ccccc3)CC2)c(NC(=O)NC2CCCCC2)c1 [Cpd 30, 3-[[(cyclohexylamino)carbonyl]amino]-N-[2-(dimethylamino)ethyl]-4-[4-(diphenylmethyl)-1-piperazinyl]-benzamide]	9.8 µM
CN1CCCN(C(=O)c2ccc(N3CCN(C(c4ccccc4)c4ccccc4)CC3)c(NC(=O)NC3CCCCC3)c2)CC1 [Cpd 31, N-cyclohexyl-N′-[2-[4-(diphenylmethyl)-1-piperazinyl]-5-[(hexahydro-4-methyl-1H-1,4-diazepin-1-yl)carbonyl]phenyl]-urea]	6.6 µM
CC(C)C[C@H](NC(=O)c1ccc(N2CCN(C(c3ccccc3)c3ccccc3)CC2)c(NC(=O)Nc2ccccc2)c1)C(=O)O [Cpd 32, N-[4-[4-(diphenylmethyl)-1-piperazinyl]-3-[[(phenylamino)carbonyl]amino]benzoyl]-L-leucine]	3.9 µM
O=C(NCc1ccccc1)Nc1cc(C(=O)N2CCNCC2)ccc1N1CCN(C(c2ccccc2)c2ccccc2)CC1 [Cpd 39, N-[2-[4-(diphenylmethyl)-1-piperazinyl]-5-(1-piperazinylcarbonyl)phenyl]-N′-(phenylmethyl)urea]	4.2 µM
Cc1ccc(NC(=O)Nc2cc(C(=O)N3CCNCC3)ccc2N2CCN(C(c3ccccc3)c3ccccc3)CC2)c(C)c1 [Cpd 41, N-(2,4-dimethylphenyl)-N′-[2-[4-(diphenylmethyl)-1-piperazinyl]-5-(1-piperazinylcarbonyl)phenyl]-urea]	1.6 µM

Reference: US20040235855A1, “Phospholipase C inhibitors for use in treating inflammatory disorders” (priority 2003, published 2004)
